Drawing on patent US20140018347A1, “BENZOXAZEPINES AS INHIBITORS OF mTOR AND METHODS OF THEIR USE AND MANUFACTURE” (Exelixis, Inc., priority 2010, published 2014), this text covers IC50 for 22 compounds.

The structures appear in SMILES notation. Bounds are passed on as bounds.

The target in assay [1] is PI3Kalpha (Homo sapiens, UniProt P42336). The assay is described as follows: PI3K Biochemical Assays (PI3K-alpha assay). The following applies: ATP consumption, luciferase-luciferin; 1 μM ATP, 10 μM PIP2. The procedure:
PI3Kn activity was measured as the percent of ATP consumed following the kinase reaction using luciferase-luciferin-coupled chemiluminescence. Reactions were conducted in 384-well white, medium binding microtiter plates (Greiner). Kinase reactions were initiated by combining test compounds, ATP, substrate (PIP2), and kinase in a 20 μL volume in a buffer solution. The standard PI3Kalpha assay buffer was composed 50 mM Tris, pH 7.5, 1 mM EGTA, 10 mM MgCl2, 1 mM DTT and 0.03% CHAPS. The standard assay concentrations for enzyme, ATP, and substrate were 3 nM, 1 μM, and 10 μM, respectively. The reaction mixture was incubated at ambient temperature for approximately 2 h. Following the kinase reaction, a 10 μL aliquot of luciferase-luciferin mix (Promega Kinase-Glo) was added and the chemiluminescence signal measured using a Victor2 or EnVision (Perkin Elmer). Total ATP consumption was limited to 40-60% and IC50 values of control compounds correlate well with literature references. Substituting PI3Kα with PI3Krβ, PI3Kγ, or PI3Kδ, the inhibitory activity of the compounds for the other isoforms of PI3K were measured. For the PI3Kβ and PI3Kδ assays, enzyme concentrations were 10 nM and 4 nM, respectively. For the PI3Kγ assay, enzyme concentration was 40 nM, the incubation time was 1 h, and the concentration of MgCl2 in the assay buffer was 5 mM.

Assay [2] addresses mTORC1 (Homo sapiens, UniProt P42345). The assay is described as follows: mTOR/GbL/Raptor (mTORC1) ELISA Assay. The format is biochemical. The following applies: phosphorylation of 4E-BP1; 0.2 nM mTORC1, 10 μM ATP. The protocol: The measurement of mTORC1 enzyme activity was performed in an ELISA assay format following the phosphorylation of 4E-BP1 protein. All experiments were performed in the 384-well format. Generally, 0.5 μL DMSO containing varying concentrations of the test compound was mixed with 15 μL enzyme solution. Kinase reactions were initiated with the addition of 15 μL of substrates-containing solution. The assay conditions were as follows; 0.2 nM mTORC1, 10 μM ATP and 50 nM NHis-tagged 4E-BP1 in 20 mM Hepes, pH 7.2, 1 mM DTT, 50 mM NaCl, 10 mM MnCl2, 0.02 mg/mL BSA, 0.01% CHAPS, 50 mM β-glycerophosphate. Following an incubation of 120 minutes at ambient temperature, 20 μL of the reaction volume was transferred to a Ni-Chelate-coated 384-well plate. The binding step of the 4E-BP1 protein proceeded for 60 minutes, followed by washing 4 times each with 50 μL of Tris-buffered saline solution (TBS). Anti-phospho-4E-BP1 rabbit-IgG (20 μL, 1:5000) in 5% BSA-TBST (0.2% Tween-20 in TBS) was added and further incubated for 60 minutes. Incubation with a secondary HRP-tagged anti-IgG was similarly performed after washing off the primary antibody (4 washes of 50 μL). Following the final wash step with TBST, 20 μL of SuperSignal ELISA Femto (Pierce Biotechnology) was added and the luminescence measured using an EnVision plate reader.
A general note: ELISA stands for enzyme-linked immunosorbent assay.

Chain of PI3Kalpha (P42336 whole entry): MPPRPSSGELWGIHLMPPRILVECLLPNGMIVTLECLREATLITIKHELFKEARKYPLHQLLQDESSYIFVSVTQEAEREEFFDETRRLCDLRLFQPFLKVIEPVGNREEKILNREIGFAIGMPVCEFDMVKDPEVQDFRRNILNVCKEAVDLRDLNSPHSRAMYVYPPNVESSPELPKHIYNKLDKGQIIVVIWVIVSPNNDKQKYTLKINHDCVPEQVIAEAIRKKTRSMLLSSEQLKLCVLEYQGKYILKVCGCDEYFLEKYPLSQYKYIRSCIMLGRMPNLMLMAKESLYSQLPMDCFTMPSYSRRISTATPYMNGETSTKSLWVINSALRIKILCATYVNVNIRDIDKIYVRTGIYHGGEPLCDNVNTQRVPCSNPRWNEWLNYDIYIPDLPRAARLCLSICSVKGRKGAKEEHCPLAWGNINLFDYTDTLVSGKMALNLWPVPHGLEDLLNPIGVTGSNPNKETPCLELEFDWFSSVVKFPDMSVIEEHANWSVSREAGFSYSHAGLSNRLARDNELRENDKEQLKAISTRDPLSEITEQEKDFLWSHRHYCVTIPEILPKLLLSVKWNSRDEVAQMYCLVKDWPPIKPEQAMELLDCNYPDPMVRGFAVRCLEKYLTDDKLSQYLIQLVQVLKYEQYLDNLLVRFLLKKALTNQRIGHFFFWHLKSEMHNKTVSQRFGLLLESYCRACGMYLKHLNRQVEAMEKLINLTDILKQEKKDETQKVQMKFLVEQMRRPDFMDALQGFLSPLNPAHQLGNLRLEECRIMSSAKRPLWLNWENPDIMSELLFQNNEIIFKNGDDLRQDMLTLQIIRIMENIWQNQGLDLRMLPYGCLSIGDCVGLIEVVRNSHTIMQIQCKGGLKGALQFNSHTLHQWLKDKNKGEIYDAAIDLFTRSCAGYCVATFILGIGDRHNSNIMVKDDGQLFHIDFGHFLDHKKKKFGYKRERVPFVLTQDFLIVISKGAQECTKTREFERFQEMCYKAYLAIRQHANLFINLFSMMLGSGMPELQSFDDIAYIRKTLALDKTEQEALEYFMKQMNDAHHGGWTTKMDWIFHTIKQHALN
Chain of PI3Kalpha (P27986 whole entry partner): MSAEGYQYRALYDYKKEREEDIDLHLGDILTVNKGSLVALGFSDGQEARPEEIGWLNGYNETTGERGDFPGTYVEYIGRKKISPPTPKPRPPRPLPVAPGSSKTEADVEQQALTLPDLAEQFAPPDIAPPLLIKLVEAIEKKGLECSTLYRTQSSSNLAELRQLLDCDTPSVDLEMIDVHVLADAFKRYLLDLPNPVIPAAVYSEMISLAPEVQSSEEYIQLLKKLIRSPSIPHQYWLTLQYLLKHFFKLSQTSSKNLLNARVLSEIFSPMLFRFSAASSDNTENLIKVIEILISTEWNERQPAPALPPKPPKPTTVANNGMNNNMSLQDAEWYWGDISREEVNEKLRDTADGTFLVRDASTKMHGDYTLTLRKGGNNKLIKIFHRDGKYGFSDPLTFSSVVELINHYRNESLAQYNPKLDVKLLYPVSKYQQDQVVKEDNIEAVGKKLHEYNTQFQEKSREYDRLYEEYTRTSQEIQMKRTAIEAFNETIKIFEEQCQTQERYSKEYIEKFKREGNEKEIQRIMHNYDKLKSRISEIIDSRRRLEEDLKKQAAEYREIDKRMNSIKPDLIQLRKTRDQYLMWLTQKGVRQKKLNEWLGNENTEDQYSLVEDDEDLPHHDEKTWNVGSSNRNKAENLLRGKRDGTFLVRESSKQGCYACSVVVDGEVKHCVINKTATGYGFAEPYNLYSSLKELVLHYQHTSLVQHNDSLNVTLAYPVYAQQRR

By IC50 is commonly meant the concentration that gives 50% inhibition. A low value points to greater potency. With `CC(C)c1c(F)nc(N)nc1N1CCOc2ccc(-c3cnc4sc(N)nc4c3)cc2C1` [Compound 10, 6-{4-[2-amino-6-fluoro-5-(1-methylethyl)pyrimidin-4-yl]-2,3,4,5-tetrahydro-1,4-benzoxazepin-7-yl}[1,3]thiazolo[5,4-b]pyridin-2-amine], the IC50 in assay [1] and in assay [2] was not above 100 nM each time.

Regarding `N#Cc1cnc(N2CCOc3ccc(-c4cnc5sc(N)nc5c4)cc3C2)nc1N` [Compound 49, 4-amino-2-[7-(2-amino[1,3]thiazolo[5,4-b]pyridin-6-yl)-2,3-dihydro-1,4-benzoxazepin-4(5H)-yl]pyrimidine-5-carbonitrile], the IC50 in assay [1] is not above 100 nM; in assay [2], 100 to 500 nM.

As to `CC(O)c1c(Cl)nc(N)nc1N1CCOc2ccc(-c3cnc4sc(N)nc4c3)cc2C1` (stereo not shown) [Compound 53, 1-{2-amino-4-[7-(2-amino[1,3]thiazolo[5,4-b]pyridin-6-yl)-2,3-dihydro-1,4-benzoxazepin-4(5H)-yl]-6-chloropyrimidin-5-yl}ethanol], the IC50 in assay [1] and in assay [2] was not above 100 nM throughout.

Consider `C#CCc1c(C)nc(N)nc1N1CCOc2ccc(-c3cnc4sc(N)nc4c3)cc2C1` [Compound 71, 6-[4-(2-amino-6-methyl-5-prop-2-yn-1-ylpyrimidin-4-yl)-2,3,4,5-tetrahydro-1,4-benzoxazepin-7-yl][1,3]thiazolo[5,4-b]pyridin-2-amine], for which the IC50 in assay [1] and in assay [2] was not above 100 nM throughout.

For the compound `Cc1nc2c(c(N3CCOc4ccc(-c5cnc6sc(N)nc6c5)cc4C3)n1)CC(C)(C)CC2` [Compound 59, 6-[4-(2,6,6-trimethyl-5,6,7,8-tetrahydroquinazolin-4-yl)-2,3,4,5-tetrahydro-1,4-benzoxazepin-7-yl][1,3]thiazolo[5,4-b]pyridin-2-amine], the IC50 in assay [1] and in assay [2] was not above 100 nM throughout.

`Cc1nc(CN(C)C)nc(N2CCOc3ccc(-c4cnc5sc(N)nc5c4)cc3C2)c1C` [Compound 2, 6-(4-{2-[(dimethylamino)methyl]-5,6-dimethylpyrimidin-4-yl}-2,3,4,5-tetrahydro-1,4-benzoxazepin-7-yl)[1,3]thiazolo[5,4-b]pyridin-2-amine]: the IC50 was not above 100 nM in assay [1] and 500 to 2500 nM in assay [2].

On to `CCOC(=O)c1cnc(N)nc1N1CCOc2ccc(-c3cnc4sc(N)nc4c3)cc2C1` [Compound 48, ethyl 2-amino-4-[7-(2-amino[1,3]thiazolo[5,4-b]pyridin-6-yl)-2,3-dihydro-1,4-benzoxazepin-4(5H)-yl]pyrimidine-5-carboxylate], for which the IC50 in assay [1] and in assay [2] was 100 to 500 nM throughout.

As for `COC(C)c1c(Cl)nc(N)nc1N1CCOc2ccc(-c3cnc4sc(N)nc4c3)cc2C1` (stereo not shown) [Compound 96, 6-(4-{2-amino-6-chloro-5-[1-(methyloxy)ethyl]pyrimidin-4-yl)-2,3,4,5-tetrahydro-1,4-benzoxazepin-7-yl)[1,3]thiazolo[5,4-b]pyridin-2-amine], the IC50 in assay [1] and in assay [2] was not above 100 nM each time.

Take `Cc1nc(CO)nc(N2CCOc3ccc(-c4cnc5sc(N)nc5c4)cc3C2)c1C(C)C` [Compound 3, {4-[7-(2-amino[1,3]thiazolo[5,4-b]pyridin-6-yl)-2,3-dihydro-1,4-benzoxazepin-4(5H)-yl]-6-methyl-5-(1-methylethyl)pyrimidin-2-yl}methanol]: the IC50 in assay [1] and in assay [2] was not above 100 nM throughout.

In the case of `C=CCc1c(C)nc(CN(C)C)nc1N1CCOc2ccc(-c3cnc4sc(N)nc4c3)cc2C1` [Compound 70, 6-(4-{2-[(dimethylamino)methyl]-6-methyl-5-prop-2-en-1-ylpyrimidin-4-yl}-2,3,4,5-tetrahydro-1,4-benzoxazepin-7-yl)[1,3]thiazolo[5,4-b]pyridin-2-amine], the IC50 in assay [1] and in assay [2] was not above 100 nM throughout.

`N#Cc1cnc(N)nc1N1CCOc2ccc(-c3cnc4sc(N)nc4c3)cc2C1` [Compound 79, 2-amino-4-[7-(2-amino[1,3]thiazolo[5,4-b]pyridin-6-yl)-2,3-dihydro-1,4-benzoxazepin-4(5H)-yl]pyrimidine-5-carbonitrile]: the 50% inhibitory concentration (IC50) was not above 100 nM in assay [1] and 100 to 500 nM in assay [2].

`CC[C@H]1CCc2c(nc(N)nc2N2CCOc3ccc(-c4cnc5sc(N)nc5c4)cc3C2)C1` [Compound 56, (7S)-4-[7-(2-amino[1,3]thiazolo[5,4-b]pyridin-6-yl)-2,3-dihydro-1,4-benzoxazepin-4(5H)-yl]-7-ethyl-5,6,7,8-tetrahydroquinazolin-2-amine]: the IC50 in assay [1] and in assay [2] was not above 100 nM each time.

Take `Cc1nc(NS(C)(=O)=O)nc(N2CCOc3ccc(-c4cnc5sc(N)nc5c4)cc3C2)c1C(C)C` [Compound 23, N-{4-(7-(2-amino[1,3]thiazolo[5,4-b]pyridin-6-yl)-2,3-dihydro-1,4-benzoxazepin-4(5H)-yl]-6-methyl-5-(1-methylethyl)pyrimidin-2-yl}methanesulfonamide]: the IC50 is 100 to 500 nM in assay [1] and not above 100 nM in assay [2].

For `Cc1nc(N)nc(N2CCOc3ccc(-c4cnc5sc(N)nc5c4)cc3C2)c1C` [Compound 5, 6-[4-(2-amino-5,6-dimethylpyrimidin-4-yl)-2,3,4,5-tetrahydro-1,4-benzoxazepin-7-yl][1,3]thiazolo[5,4-b]pyridin-2-amine], the IC50 in assay [1] was not above 100 nM; in assay [2], 100 to 500 nM.

`Nc1cc(N2CCOc3ccc(-c4cnc5sc(N)nc5c4)cc3C2)nc(N)n1` [Compound 80, 6-[7-(2-amino[1,3]thiazolo[5,4-b]pyridin-6-yl)-2,3-dihydro-1,4-benzoxazepin-4(5H)-yl]pyrimidine-2,4-diamine]: the IC50 in assay [1] is not above 100 nM; in assay [2] it was 100 to 500 nM.

Consider `COC(=O)Cc1c(C)nc(CN(C)C)nc1N1CCOc2ccc(-c3cnc4sc(N)nc4c3)cc2C1` [Compound 14, methyl {4-[7-(2-amino[1,3]thiazolo[5,4-b]pyridin-6-yl)-2,3-dihydro-1,4-benzoxazepin-4(5H)-yl]-2-[(dimethylamino)methyl]-6-methylpyrimidin-5-yl}acetate], for which the values for the IC50 in assay [1] and in assay [2] were not above 100 nM and 100 to 500 nM, respectively.

With `CC#Cc1c(C)nc(N)nc1N1CCOc2ccc(-c3cnc4sc(N)nc4c3)cc2C1` [Compound 77, 6-[4-(2-amino-6-methyl-5-prop-1-yn-1-ylpyrimidin-4-yl)-2,3,4,5-tetrahydro-1,4-benzoxazepin-7-yl][1,3]thiazolo[5,4-b]pyridin-2-amine], the IC50 in assay [1] and in assay [2] was not above 100 nM throughout.

Take `C#Cc1c(C)nc(N)nc1N1CCOc2ccc(-c3cnc4sc(N)nc4c3)cc2C1` [Compound 74, 6-[4-(2-amino-5-ethynyl-6-methylpyrimidin-4-yl)-2,3,4,5-tetrahydro-1,4-benzoxazepin-7-yl][1,3]thiazolo[5,4-b]pyridin-2-amine]: the IC50 in assay [1] and in assay [2] was not above 100 nM each time.

In the case of `Cc1nc(CN(C)C)nc(N2CCOc3ccc(-c4cnc5sc(N)nc5c4)cc3C2)c1CC1CC1` [Compound 27, 6-(4-{5-(cyclopropylmethyl)-2-[(dimethylamino)methyl]-6-methylpyrimidin-4-yl}-2,3,4,5-tetrahydro-1,4-benzoxazepin-7-yl)[1,3]thiazolo[5,4-b]pyridin-2-amine], the IC50 in assay [1] and in assay [2] was not above 100 nM throughout.

On to `Cc1cnc(N)nc1N1CCOc2ccc(-c3cnc4sc(N)nc4c3)cc2C1` [Compound 35, 6-[4-(2-amino-5-methylpyrimidin-4-yl)-2,3,4,5-tetrahydro-1,4-benzoxazepin-7-yl][1,3]thiazolo[5,4-b]pyridin-2-amine], for which the IC50 in assay [1] is not above 100 nM; in assay [2], 100 to 500 nM.

Turning to `COc1nc(N)nc(N2CCOc3ccc(-c4cnc5sc(N)nc5c4)cc3C2)c1C` [Compound 67], the IC50 in assay [1] was not above 100 nM; in assay [2], 100 to 500 nM.

In turn, `CNc1nc(C)c(C(C)C)c(N2CCOc3ccc(-c4cnc5sc(N)nc5c4)cc3C2)n1` [Compound 92, 6-{4-[6-methyl-2-(methylamino)-5-(1-methylethyl)pyrimidin-4-yl]-2,3,4,5-tetrahydro-1,4-benzoxazepin-7-yl}[1,3]thiazolo[5,4-b]pyridin-2-amine] came in with an IC50 in assay [2] not above 100 nM.
